Results as given in patent publication US20220235325A1, “STIMULATION OF DENDRITIC CELL ACTIVITY BY HOMOTAURINE AND ANALOGUES THEREOF” (Therapeutic Solutions International, Inc., priority 2021, published 2022).

Legend:
monocytes = settings: cited from earlier work
NK target cell line = experiment: Natural killer cell activity of PBMC plated with StemVacs dendritic cells (flow cytometry Promega cytotoxicity assay); format: cell-based; settings: 10 micrograms/ml; PBMC plus StemVacs umbilical cord derived dendritic cells; 12, 24, 36 hrs (FIG. 1)
Experimental: (§1) Peripheral blood mononuclear cells where obtained by ficoll centrifugation and plated with StemVacs umbilical cord derived dendritic cells. StemVacs was generated by culture of umbilical blood adherent cells with interleukin 4 and GM-CSF for 7 days with maturation step induced by 24 hour culture TLR agonist. Assessment of natural killer cell activity was performed subsequent to culture of cells with taurine (10 micrograms/ml) or homotaurine (10 micrograms/ml) for the indicated timepoints. Cytotoxicity against NK target cell line was performed using the flow cytometry Promega assay.

[1] = test system: interferon gamma production; experiment: T cell activity of PBMC plated with StemVacs dendritic cells (ELISA of interferon gamma after phytohemagglutinin); format: cell-based; settings: 10 micrograms/ml; PBMC plus StemVacs; 5 micrograms per ml phytohemagglutinin; 12, 24, 36 hrs (FIG. 2)
Experimental: as §1, with “StemVacs” left out, “T” for “natural killer”, “T” for “Cytotoxicity against NK target”, “activity” for “line”, “assessed by ELISA quantification of interferon gamma production after stimulation with 5 micrograms per ml of phytohemagglutinin.” for “performed using the flow cytometry Promega assay.”

[2] = monocytes from human peripheral blood

| SMILES | FcgammaR-mediated cytokine production and antibody-dependent cellular cytotoxicity by monocytes (monocytes; 12 hour exposure) | Expression of ADCC associated receptors FcgammaRI, FcgammaRIIa and common gamma-subunit (monocytes; [2]) | Expression of the inhibitory FcgammaRIth molecule (monocytes; [2]) | Ability of StemVacs to stimulate NK activity (cytotoxicity against NK target cell line) (NK target cell line) | Ability of StemVacs to stimulate T cell activity (interferon gamma production) [1] |
| --- | --- | --- | --- | --- | --- |
| CCOCc1nc2c(N)nc3ccccc3c2n1CC(C)(C)O [R-848] | increased | upregulation | profound downregulation |  |  |
| NCCCS(=O)(=O)O [Homotaurine, homotaurine] |  |  |  | Increases Ability of StemVacs to Stimulate NK Activity | Increases Ability of StemVacs to Stimulate T Cell Activity |
